{
  "source": "patent US12084708B1",
  "about": "“Acoustic wave resonator with active shunt capacitance cancellation and systems thereof” (National Technology & Engineering Solutions of Sandia, LLC, priority 2019, dated 2024)",
  "key": {"E. coli MG1655": {"tested_on": "E. coli MG1655", "experiment": "Dose response growth curve analysis (OD600), MG1655", "assay_type": "cell-based", "experimental": "To perform an initial test of the sensors' ability to detect response of bacteria to antibiotics, common molecular cloning strains and one pseudo-wild-type strain of E. coli were selected. TOP10, DH5α, and MG1655 strains are sensitive to kanamycin, ampicillin, or chloramphenicol in the absence of a plasmid conferring resistance. Dose response growth curve analysis was performed to determine appropriate concentrations of antibiotic to use with each strain and plasmid combination."}, "E. coli": {"tested_on": "E. coli", "settings": "final concentration 1M; positive control for cell death", "method": "For experiments in which bacteria were applied to the resonator devices, cultures were harvested at late log to early stationary phase. Cells were centrifuged at 5000× g for 5 minutes then resuspended in either fresh LB medium or phosphate-buffered saline. For antibiotic treatment, 200 µg/ml kanamycin was added to cells in the sensor devices."}},
  "data": [
    {"compound": "CC1(C)S[C@@H]2[C@H](NC(=O)[C@H](N)c3ccccc3)C(=O)N2[C@H]1C(=O)O", "note": "[ampicillin]", "values": [
      {"measurement": "concentration at which growth inhibition was observed", "setting": "E. coli MG1655; E. coli MG1655 cultures, varying doses, OD600, FIG. 16B", "result": "more than 1.56 μg/mL"}
    ]},
    {"compound": "NC[C@H]1O[C@H](O[C@H]2[C@H](O)[C@@H](O[C@H]3O[C@H](CO)[C@@H](O)[C@H](N)[C@H]3O)[C@H](N)C[C@@H]2N)[C@H](O)[C@@H](O)[C@@H]1O", "note": "[kanamycin]", "values": [
      {"measurement": "minimum concentration that completely blocked growth", "setting": "E. coli MG1655; E. coli MG1655 without plasmid, full 24 hr culture time, OD600, FIG. 17", "result": 25, "unit": "µg/mL"}
    ]},
    {"compound": "[Na+].[OH-]", "note": "[sodium hydroxide]", "values": [
      {"measurement": "lysis of bacteria", "setting": "E. coli", "result": "Complete lysis"}
    ]}
  ]
}
